Experiments:
whole cells of E. coli = assay: GM-CSF binding assay to bacterial whole cells (slot blot immunoblotting); set-up: species or system Escherichia coli; conditions: PBS, room temperature, 2 h, anti-rhGM-CSF immunoblot (FIG. 21)
Description: This Example describes experiments conducted to determine the capability of GM-CSF to bind to whole cells of P. aeruginosa and E. coli. In brief, bacteria harvested at stationary phases of growth were washed with PBS and adjusted to OD600 of 0.4 with PBS to ensure that an equal amount of cells was used for all GF-CSF binding tests. Suspensions of bacteria (10^6 CFU) were then incubated with and without different amount of recombinant human GM-CSF (rhGM-CSF, R&D systems) in a 40 μL volume at room temperature for 2 hours. After incubation, the cell suspension was centrifuged to separate supernatant (comprising buffer and unbound GM-CSF) and pellet (comprising cell and bound GM-CSF, if any), followed by the addition of 10 mM EDTA and boiling for 30 minutes to inactivate bacterial alkaline phosphatase activity. As control, PBS buffer with GM-CSF were processed in the similar manner. All the samples were then applied to Slot Blot (BioRad) for immunoblotting experiments. Anti-rhGMCSF developed in mice (Human GM-CSF MAb, Mouse IgG1, R&D system) was used as first antibody; Alkaline Phosphatase conjugated with Anti-mouse IgG was used to detect the binding of GM-CSF with BCIP/NBT (Promega) as substrates.

[1] = test system: P. aeruginosa PAO1 biofilm; assay: Effect of GM-CSF on 24-h PAO1 biofilm, alone and with antibiotic; type: cell-based, Pseudomonas aeruginosa
Description: This Example describes the treatment of biofilms made from P. aeruginosa PAO1, PDO300 and Escherichia coli K12, with GM-CSF introduced directly or together with an antibiotic to test the synergy.
In brief, after preparing an overnight culture, it was subcultured to an initial OD600 of 0.01 to a total volume of 20 mL M63 medium (for PAO1 and PDO300) or 20 ml LB medium (for E. coli K12) in a petri dish with 316L stainless steel coupons (1.75 cm×1 cm). The biofilm was grown for 24 h at 37° C. without shaking. After incubation, the coupons were washed by gently dipping in 0.85% NaCl twice using tweezers and were placed in new empty petri dishes.
To test the synergistic effects between GM-CSF (2.43 pg/mL or 0.17 pM) and antibiotics, a total of 8 coupons were analyzed. These 8 coupons were placed in 4 petri dishes (2 coupons in each dish). The two dishes were labeled as control and the other two as treatment samples. In the treatment samples, GM-CSF was added to 20 mL of 0.85% NaCl to a concentration of 2.43 pg/mL (or 0.17 pM). The control samples were supplemented with the same amount of PBS and BSA as present in the samples with 2.43 pg/ml (or 0.17 pM) GM-CSF. The coupons were incubated at 37° C. for 2 h.
After incubation, a control dish and a treatment dish was selected for studying the killing effect of 2.43 pg/ml GM-CSF on biofilm cells. Each coupon after gentle washing with 0.85% NaCl buffer, was placed in a test tube with 3 mL 0.85% NaCl buffer in each. They were sonicated (B200, Sinosonic Industrial Co., Ltd., Taiwan) for 4 mins to release the biofilm cells in the buffer. After vortexing for 1 min, they were plated on LB agar plates using drop plate method. The CFU was counted after incubation at 37° C. for 24 h to count the total number of viable cells. Furthermore, the synergistic effect of antibiotics with GM-CSF was evaluated with additional 3.5 h treatment with antibiotic at 37° C. After incubation, drop plate method was performed and the CFU was counted to understand if there is a synergistic effect.

[2] = test system: planktonic cells of PDO300; assay: Synergistic effect of GM-CSF, tobramycin and alginate lyase on planktonic cells of PDO300; type: cell-based, Pseudomonas aeruginosa
Source text: This Example describes the use of alginate lyase as an enzyme to break down the extra alginate in order to understand the effect of the presence of alginate in PDO300 on the GM-CSF and antibiotic treatment.
To improve the effects of GM-CSF and antibiotics on the alginate overproducing PDO300, alginate lyase was used as an enzyme to break down the extra alginate. Alginate lyase is an enzyme which depolymerizes the alginate polymer by […] reaction. The alginate lyase used in the experiment was alginate lyase from Flavobacterium sp. (Sigma, catalog no. A1603-100MG). The experimental method was similar as mentioned above for the combined effect of GM-CSF and antibiotic. The alginate lyase was added as 0.05 mg/mL.
In brief, the experiment was performed in exponential phase with an optical density at 600 nm (OD600) of 0.3 to 0.4. After preparing an overnight culture of the tested strain in 25 ml LB medium, a subculture was prepared with an OD600 of 0.01 in 50 mL LB medium. The subculture was incubated at 37° C. with shaking at 200 rpm for 3-4 h, till OD600 of 0.3 to 0.4 was reached. The exponential phase subculture was then divided equally into two centrifuge tubes. The subcultures were washed twice with 0.85% NaCl buffer by vortexing and then centrifuging at 4° C., 8000 rpm for 10 min each time. The washed subcultures were resuspended in 25 mL 0.85% NaCl buffer and vortexed gently for 1 min. One of the subculture was selected for isolation of persisters by adding 200 μg/mL ciprofloxacin. After adding the antibiotic, the subculture was incubated at 37° C. with shaking at 200 rpm for 3.5 h. The other subculture was used to quantify the total number of viable cells.
For testing the direct impact of GM-CSF on the total viable cells, 1 mL of the subculture was added in 24 microcentrifuge tubes; 12 were control and the other 12 were GM-CSF treatment samples. In the treatment samples, GM-CSF was added to a concentration of 2.43 pg/mL. The control samples were supplemented with the same concentration of PBS and BSA as present in 2.43 pg/mL GM-CSF samples. […]

“GM-CSF: granulocyte macrophage-colony stimulating factor, a cytokine secreted by macrophages; recombinant human GM-CSF (R&D systems) in binding tests” was tested, and the “binding to whole cells” value (whole cells of E. coli) was “not”, the “% change in avg. CFU/ml after adding factor + CIP” value ([1]; 24-h PAO1 biofilm, 2.43 pg/mL GM-CSF with 200 μg/mL ciprofloxacin) was −23.8% and the “% change in avg. CFU/ml after adding factor + TET” value ([1]; 24-h PAO1 biofilm, 2.43 pg/mL GM-CSF with 200 μg/mL tetracycline) was −10.0%. For the same substance, the “% change in avg. CFU/ml after adding factor + TOB” value ([1]; 24-h PAO1 biofilm, 2.43 pg/mL GM-CSF with 200 μg/mL tobramycin) was −34.1%, the “% change in avg. CFU/ml after adding factor + GEN” value ([1]; 24-h PAO1 biofilm, 2.43 pg/mL GM-CSF with 250 μg/mL gentamycin) was −12.9% and the “average CFU/ml of biofilm cells reduced by” value ([1]; reduction, PAO1 biofilm, 2.43 pg/mL GM-CSF alone, average of 2 experiments) was 1.3%. For the same substance, the “average CFU/mL of biofilm cells reduced by” value ([1]; reduction, PAO1 biofilm, 2.43 pg/mL GM-CSF in the presence of 200 μg/mL ciprofloxacin) was 22.8%, the “average CFU/mL of biofilm cells reduced by” value ([1]; reduction, PAO1 biofilm, 2.43 pg/mL GM-CSF in the presence of 200 μg/mL tetracycline) was 7.5% and the “average CFU/mL of biofilm cells reduced by” value ([1]; reduction, PAO1 biofilm, 2.43 pg/mL GM-CSF in the presence of 200 μg/mL tobramycin) was 33.3%. For the same substance, the “average CFU/mL of biofilm cells reduced by” value ([1]; reduction, PAO1 biofilm, 2.43 pg/mL GM-CSF in the presence of 250 μg/mL gentamicin) was 10.5%, the “persisters changed by” value ([2]; planktonic PDO300, 2.43 pg/mL GM-CSF and 50 μg/mL tobramycin) was −63.6±5.4% and the “persisters changed by” value ([2]; planktonic PDO300, 2.43 pg/mL GM-CSF, 50 μg/mL tobramycin and 0.05 mg/mL Alginate lyase) was −74.1±3.3%. For the same substance, the “persisters changed by” value ([2]; planktonic cells (Example on PDO300; sentence prints PAO1), 2.43 pg/mL GM-CSF alone) was −15.0±4.2%.

From patent US9370189B2, “Controlling Pseudomonas aeruginosa persister cells with GM-CSF” (priority 2012, dated 2016)
